Data taken from ChEMBL document CHEMBL1909294, “Translating clinical findings into knowledge in drug safety evaluation--drug induced liver injury prediction system (DILIps)” (PLoS Comput Biol, 2011).

How the values were obtained:
Hepatotoxicity [1] = test system: Hepatotoxicity;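 for HepSE Combined Scores: combined hepatic side effect score as listed in the training data of the Drug Induced Liver Injury Prediction System (DILIps)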;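 for HepSE bilirubinemia: bilirubinemia hepatic side effect score drawn from the DILIps training data, a prediction system for drug-induced liver injury; call rule not given here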;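 for HepSE cirrhosis: cirrhosis hepatic side effect score taken from the DILIps (drug-induced liver injury prediction) training set; call rule not given here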;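 for HepSE elevated liver function tests: hepatic side effect score for raised liver function tests, as recorded in the DILIps training set used for predicting drug-induced liver injury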; for HepSE hepatic failure: call rule not given here;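 for HepSE hepatomegaly: hepatic side effect score for hepatomegaly, taken from the training set of the DILIps drug-induced liver injury prediction system; call rule not given here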;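 for HepSE liver fatty: hepatic side effect score for fatty liver, taken from the DILIps training set for predicting drug-induced liver injury; call rule not given here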
Hepatotoxicity [2] = test system: Hepatotoxicity; remark: listed apart in the source;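 for HepSE Combined Scores: combined hepatic side effect score as listed in the training data of the Drug Induced Liver Injury Prediction System (DILIps)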;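 for HepSE bilirubinemia: bilirubinemia hepatic side effect score drawn from the DILIps training data, a prediction system for drug-induced liver injury; call rule not given here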;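 for HepSE cirrhosis: cirrhosis hepatic side effect score taken from the DILIps (drug-induced liver injury prediction) training set; call rule not given here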;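 for HepSE elevated liver function tests: hepatic side effect score for raised liver function tests, as recorded in the DILIps training set used for predicting drug-induced liver injury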; for HepSE hepatic failure: call rule not given here;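 for HepSE hepatomegaly: hepatic side effect score for hepatomegaly, taken from the training set of the DILIps drug-induced liver injury prediction system; call rule not given here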;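 for HepSE liver fatty: hepatic side effect score for fatty liver, taken from the DILIps training set for predicting drug-induced liver injury; call rule not given here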
Hepatotoxicity [3] = test system: Hepatotoxicity; remark: listed apart in the source;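 for HepSE Combined Scores: combined hepatic side effect score as listed in the training data of the Drug Induced Liver Injury Prediction System (DILIps)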;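 for HepSE bilirubinemia: bilirubinemia hepatic side effect score drawn from the DILIps training data, a prediction system for drug-induced liver injury; call rule not given here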;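 for HepSE elevated liver function tests: hepatic side effect score for raised liver function tests, as recorded in the DILIps training set used for predicting drug-induced liver injury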; for HepSE hepatic failure: call rule not given here;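 for HepSE hepatomegaly: hepatic side effect score for hepatomegaly, taken from the training set of the DILIps drug-induced liver injury prediction system; call rule not given here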;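 for HepSE liver fatty: hepatic side effect score for fatty liver, taken from the DILIps training set for predicting drug-induced liver injury; call rule not given here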
Hepatotoxicity [4] = test system: Hepatotoxicity; remark: listed apart in the source;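 for HepSE Combined Scores: combined hepatic side effect score as listed in the training data of the Drug Induced Liver Injury Prediction System (DILIps)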;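 for HepSE bilirubinemia: bilirubinemia hepatic side effect score drawn from the DILIps training data, a prediction system for drug-induced liver injury; call rule not given here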;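 for HepSE elevated liver function tests: hepatic side effect score for raised liver function tests, as recorded in the DILIps training set used for predicting drug-induced liver injury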; for HepSE hepatic failure: call rule not given here;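 for HepSE hepatomegaly: hepatic side effect score for hepatomegaly, taken from the training set of the DILIps drug-induced liver injury prediction system; call rule not given here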;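 for HepSE liver fatty: hepatic side effect score for fatty liver, taken from the DILIps training set for predicting drug-induced liver injury; call rule not given here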
Hepatotoxicity [5] = test system: Hepatotoxicity; remark: listed apart in the source; for HepSE hepatic failure: call rule not given here
Hepatotoxicity [6] = test system: Hepatotoxicity; remark: listed apart in the source; for HepSE hepatic failure: call rule not given here
Hepatotoxicity [7] = test system: Hepatotoxicity; remark: listed apart in the source
Hepatotoxicity [8] = test system: Hepatotoxicity; remark: listed apart in the source
Hepatotoxicity [9] = test system: Hepatotoxicity; remark: listed apart in the source
Hepatotoxicity [10] = test system: Hepatotoxicity; remark: listed apart in the source
Hepatotoxicity [11] = test system: Hepatotoxicity; remark: listed apart in the source
Hepatotoxicity [12] = test system: Hepatotoxicity; remark: listed apart in the source
Hepatotoxicity [13] = test system: Hepatotoxicity; remark: listed apart in the source
Hepatotoxicity [14] = test system: Hepatotoxicity; remark: listed apart in the source

SMILES	HepSE_liver fatty (Hepatotoxicity [1])	HepSE_hepatic failure (Hepatotoxicity [2])	HepSE_bilirubinemia (Hepatotoxicity [3])	HepSE_hepatomegaly (Hepatotoxicity [4])	HepSE_Combined Scores (Hepatotoxicity [5])	HepSE_hepatitis (Hepatotoxicity [6])	HepSE_elevated liver function tests (Hepatotoxicity [7])	HepSE_cirrhosis (Hepatotoxicity [8])	HepSE_liver disease (Hepatotoxicity [9])	HepSE_cholecystitis (Hepatotoxicity [10])	HepSE_liver function tests abnormal (Hepatotoxicity [11])	HepSE_cholelithiasis (Hepatotoxicity [12])	HepSE_jaundice (Hepatotoxicity [13])	HepSE_hepatic necrosis (Hepatotoxicity [14])	further results
CCN(CC)CCNC(=O)c1c(C)[nH]c(/C=C2\C(=O)Nc3ccc(F)cc32)c1C [SUNITINIB]	0	1	0	0	2	0	0	0	0	0	0	0	1	0	–
C#CCN(C)[C@H](C)Cc1ccccc1 [SELEGILINE]	0	0	1	0	5	1	0	0	0	1	1	1	0	0	–
C[C@]12CC[C@@H]3c4ccc(O)cc4CC[C@H]3[C@@H]1CC[C@@H]2O [ESTRADIOL]	0	0	0	0	3	1	1	0	0	0	0	0	1	0	–
COc1ccc([C@@H]2Sc3ccccc3N(CCN(C)C)C(=O)[C@@H]2OC(C)=O)cc1 [DILTIAZEM]	0	0	0	0	0	0	0	0	0	0	0	0	0	0	–
CC(C)C[C@H](NC(=O)[C@@H](COC(C)(C)C)NC(=O)[C@H](Cc1ccc(O)cc1)NC(=O)[C@H](CO)NC(=O)[C@H](Cc1c[nH]c2ccccc12)NC(=O)[C@H](Cc1cnc[nH]1)NC(=O)[C@@H]1CCC(=O)N1)C(=O)N[C@@H](CCCNC(=N)N)C(=O)N1CCC[C@H]1C(=O)NNC(N)=O [GOSERELIN]	0	0	0	0	0	0	0	0	0	0	0	0	0	0	–
CN(C)CC(c1ccc(O)cc1)C1(O)CCCCC1 (centres undefined) [DESVENLAFAXINE]	0	0	0	0	0	0	0	0	0	0	0	0	0	0	–
CC(=O)[C@@]1(O)CC[C@H]2[C@@H]3C[C@H](C)C4=CC(=O)C=C[C@]4(C)[C@@]3(F)[C@@H](O)C[C@@]21C [FLUOROMETHOLONE]	0	0	0	0	0	0	0	0	0	0	0	0	0	0	–
NC(=O)C(c1ccccc1)(c1ccccc1)[C@@H]1CCN(CCc2ccc3c(c2)CCO3)C1 [DARIFENACIN]	0	0	0	0	0	0	0	0	0	0	0	0	0	0	–
OCCN1C[C@H](O)[C@@H](O)[C@H](O)[C@H]1CO [MIGLITOL]	0	0	0	0	0	0	0	0	0	0	0	0	0	0	–
C[C@@H]1[C@H](O)[C@@H](C)/C=C/C=C/C=C/C=C/C=C/C=C/C=C/[C@H](O[C@@H]2O[C@H](C)[C@@H](O)[C@H](N)[C@@H]2O)C[C@@H]2O[C@](O)(C[C@@H](O)C[C@@H](O)[C@H](O)CC[C@@H](O)C[C@@H](O)CC(=O)O[C@H]1C)C[C@H](O)[C@H]2C(=O)O [AMPHOTERICIN B]	0	1	1	1	7	1	0	0	1	0	1	0	1	0	–
CNCC[C@H](Oc1cccc2ccccc12)c1cccs1 [DULOXETINE]	–	–	–	–	–	–	–	–	–	–	–	–	–	–	HepSE_liver fatty (Hepatotoxicity [1]; Liver): 1; HepSE_hepatic failure (Hepatotoxicity [2]; Liver): 0; HepSE_bilirubinemia (Hepatotoxicity [3]; Liver): 0; HepSE_hepatomegaly (Hepatotoxicity [4]; Liver): 0; HepSE_Combined Scores (Hepatotoxicity [5]; Liver): 3; HepSE_hepatitis (Hepatotoxicity [6]; Liver): 1; HepSE_elevated liver function tests (Hepatotoxicity [7]; Liver): 0; HepSE_cirrhosis (Hepatotoxicity [8]; Liver): 0; HepSE_liver disease (Hepatotoxicity [9]; Liver): 0; HepSE_cholecystitis (Hepatotoxicity [10]; Liver): 0; HepSE_liver function tests abnormal (Hepatotoxicity [11]; Liver): 0; HepSE_cholelithiasis (Hepatotoxicity [12]; Liver): 0; HepSE_jaundice (Hepatotoxicity [13]; Liver): 1; HepSE_hepatic necrosis (Hepatotoxicity [14]; Liver): 0
C[C@]12C=CC(=O)C=C1CC[C@@H]1[C@@H]2C(=O)C[C@@]2(C)[C@H]1CC[C@]2(O)C(=O)CO [PREDNISONE]	0	0	0	0	0	0	0	0	0	0	0	0	0	0	–
O=C(CCCCC(=O)Nc1c(I)cc(I)c(C(=O)O)c1I)Nc1c(I)cc(I)c(C(=O)O)c1I [IODIPAMIDE]	0	0	0	0	0	0	0	0	0	0	0	0	0	0	–
C=CC1=C(C(=O)O)N2C(=O)[C@@H](NC(=O)/C(=N\O)c3csc(N)n3)[C@H]2SC1	0	1	0	0	3	1	0	0	0	0	0	0	1	0	–
[H]/N=C(/N)N[C@H]1[C@H](O)[C@@H](O)[C@H](O[C@@H]2O[C@@H](C)[C@](O)(C=O)[C@H]2O[C@@H]2O[C@@H](CO)[C@H](O)[C@@H](O)[C@@H]2NC)[C@@H](N/C(N)=N\[H])[C@@H]1O [STREPTOMYCIN]	–	–	–	–	–	–	–	–	–	–	–	–	–	–	HepSE_liver fatty (Hepatotoxicity [1]; Liver): 0; HepSE_hepatic failure (Hepatotoxicity [2]; Liver): 0; HepSE_bilirubinemia (Hepatotoxicity [3]; Liver): 0; HepSE_hepatomegaly (Hepatotoxicity [4]; Liver): 0; HepSE_Combined Scores (Hepatotoxicity [5]; Liver): 0; HepSE_hepatitis (Hepatotoxicity [6]; Liver): 0; HepSE_elevated liver function tests (Hepatotoxicity [7]; Liver): 0; HepSE_cirrhosis (Hepatotoxicity [8]; Liver): 0; HepSE_liver disease (Hepatotoxicity [9]; Liver): 0; HepSE_cholecystitis (Hepatotoxicity [10]; Liver): 0; HepSE_liver function tests abnormal (Hepatotoxicity [11]; Liver): 0; HepSE_cholelithiasis (Hepatotoxicity [12]; Liver): 0; HepSE_jaundice (Hepatotoxicity [13]; Liver): 0; HepSE_hepatic necrosis (Hepatotoxicity [14]; Liver): 0
CCCCCc1cc(O)c2c(c1)OC(C)(C)[C@@H]1CCC(C)=C[C@@H]21 [DRONABINOL]	0	0	0	0	0	0	0	0	0	0	0	0	0	0	–
